# Data as given in patent US20230381139A1, “METHODS OF TREATING AND/OR PREVENTING ALZHEIMER’S DISEASE WITH R-CARVEDILOL” (priority 2020, published 2023).
# How the values were obtained:
# [1] = system: hippocampal CA3-CA1 pathway of 5×FAD+/− mice; assay: Long-term potentiation / fEPSP recording in hippocampal slices from treated 5×FAD+/− mice; type: in vivo, mouse; conditions: 3.2 mg/kg/day for one month started at 2-3 months of age (before AD symptoms), slices at 3-4 months; vs DMSO
# Description: Adult genetically engineered mice, 5×FAD^+/− (Oakley et al., 2006), RyR2-E4872Q^+/− (EQ^+/−) (Chen et al., 2014), 5×FAD^+/−/RyR2-E4872Q^+/− (5×FAD^+/−/EQ^+/−), and wildtype (WT) littermates of both sexes were used. R-carvedilol (R-CV) (at doses of 0.8, 1.6 or 3.2 mg/kg/day), racemic carvedilol (3.2 mg/kg/day), and vehicle control (DMSO) were delivered to 5×FAD^+/− mice in drinking water for one month, starting at different ages before (2-3 months old) or after (3-4 months old) the occurrence of AD pathologies (Oakley et al., 2006). To assess the effects of genetically and pharmacologically limiting RyR2 open time on the prevention and rescue of AD deficits in different stages (early, moderate, and late) of AD progression, animals at different ages (from 2-15 months) were used. […] For 2-photon Ca^2+ imaging experiments, 5×FAD, RyR2 WT, and RyR2 mutant mice were cross-bred with the heterozygous Thy1-GCaMP6f transgenic mice (Chen et al., 2012; Chen et al., 2013) (GP5.17, JAX 025393) to express the GCaMP6f Ca^2+ sensing probe (driven by the Thy1 promotor) in hippocampal neurons in each of the genotypes used.
# Schaffer collateral fibers were stimulated at the CA3 subfield to record field excitatory postsynaptic potentials (fEPSPs) in the CA1 stratum radiatum of transverse hippocampal slices ([…]) from all genotypes and drug-treated mice at different ages. After recovering at room temperature for 1 h (or 2 h for brain slices from drug-treated mice), hippocampal slices were allowed to recover in the recording chamber for additional 10 min. To evaluate basal synaptic transmission, different stimulation strengths (0 μA to 200 μA in steps of 20 μA) were applied and plotted fEPSP slopes versus the current input to compare the slope of input/output (I/O) curves of fEPSP. In the experiments that followed, stimulus current was adjusted so that fEPSP stabilized at 40-50% of maximum. Baseline was recorded for at least […] until the differences among fEPSP slopes were within 10%. Long-term potentiation (LTP) was induced using a tetanic high-frequency stimulation (HFS; 4 trains of 100 pulses at 100 Hz, with 20-sec intervals). Synaptic responses were recorded for at least 60 min after tetanization and quantified as the slope of the evoked fEPSP as percentage of the baseline.
# [2] = system: AD; conditions: racemic mixture at a dose of 25 mg per day, pilot clinical trial; cited from earlier work
# [3] = system: ryanodine receptor (RyR2); conditions: cited from earlier work
# [4] = system: 5×FAD+/− mice; assay: Learning and memory tests (Morris water maze, novel object recognition) in 5×FAD+/− mice; type: in vivo, mouse; conditions: 3.2 mg/kg/day for one month started at 2-3 months of age (before AD symptoms), tested at 3-4 months; vs DMSO
# Description: Adult genetically engineered mice, 5×FAD^+/− (Oakley et al., 2006), RyR2-E4872Q^+/− (EQ^+/−) (Chen et al., 2014), 5×FAD^+/−/RyR2-E4872Q^+/− (5×FAD^+/−/EQ^+/−), and wildtype (WT) littermates of both sexes were used. R-carvedilol (R-CV) (at doses of 0.8, 1.6 or 3.2 mg/kg/day), racemic carvedilol (3.2 mg/kg/day), and vehicle control (DMSO) were delivered to 5×FAD^+/− mice in drinking water for one month, starting at different ages before (2-3 months old) or after (3-4 months old) the occurrence of AD pathologies (Oakley et al., 2006). To assess the effects of genetically and pharmacologically limiting RyR2 open time on the prevention and rescue of AD deficits in different stages (early, moderate, and late) of AD progression, animals at different ages (from 2-15 months) were used. As reported (Oakley et al., 2006), there was an age-dependence of AD progression in the 5×FAD^+/− mice. No sex-dependent differences in AD progression in these mice was observed. For 2-photon Ca^2+ imaging experiments, 5×FAD, RyR2 WT, and RyR2 mutant mice were cross-bred with the heterozygous Thy1-GCaMP6f transgenic mice (Chen et al., 2012; Chen et al., 2013) (GP5.17, JAX 025393) to express the GCaMP6f Ca^2+ sensing probe (driven by the Thy1 promotor) in hippocampal neurons in each of the genotypes used.
# The learning and memory of mice with all genotypes were evaluated using the Morris water maze (MWM) test, the Barnes maze (BM) test, and/or the novel object recognition (NOR) test. Experiments were carried out blindly. For the MWM test, mice at different ages were trained to localize a hidden escape platform (10×10 cm) in a circular pool (116.84 cm in diameter, 50 cm in depth) (San Diego Instruments, CA) via distal visual cue. The platform was submerged 1-2 cm beneath the surface in water (22-24°C.), which was rendered opaque by addition of milk powder. The localization of the pool in relation to visual cues was maintained constantly during the entire task. The cues were distinct in color and shape. Digital division of the tracking area (pool) into four quadrants was performed by the SMART video tracking system, Smart 3.0 (Panlab Harvard Apparatus; Barcelona Spain). The escape platform was placed in the centre of the south-west quadrant for the entirety of the learning phase (4 training days) and digitally defined as target. Spatial training consisted of 4 days with 5 trials per mouse per day. Mice were released with their heads facing the pool wall at one of four entry locations (north, east, south and west) in a non-repetitive random order. Swimming was automatically video-tracked until the subject found the escape platform and remained on it (≥5 sec), or until a maximum of 60 seconds. […] In between trials (inter-trial interval ≥10 min), mice were housed in heated cages to avoid performance deficits due to exhaustion or hypothermia. The latency and swimming speed to reach the escape platform were recorded for comparison. After the learning phase, memory retention was evaluated by one probe trial 24 hours after the last training session. The escape platform was removed before mice were released from the north entry point into the pool. Their swimming was video-tracked for 60 seconds. The area at the location of the removed hidden platform was defined as the target and the south-west quadrant the target quadrant. The percentage of time mice spent in the target quadrant (including the target) were measured for comparison.
# For the NOR test, mice were habituated for 10 min per mouse in an equally illuminated, odor-free, white, plastic box (40×40×50 cm^3) embedded with fresh aspen shavings and shreds. In between each mouse trial the box was wiped with ethanol to avoid odor-induced stress. 24 hours after habituation, two identical objects ware placed at equal distance to each other and the corners of the box. Each mouse was placed into the center, and allowed to move freely for 10 min. Mice were video recorded during this familiarizing phase. […]
# [5] = system: oligomeric Aβ; conditions: chronic treatment, animal studies; cited from earlier work
# [6] = system: Kv4.2/KChIP4 channel complex; assay: Whole-cell A-type K+ current recording in Kv4.2/KChIP4 transfected HEK293 cells expressing RyR2 WT; type: cell-based; conditions: caffeine 2.5 mM, 2 min after application vs baseline
# Description: Previous studies used whole-cell patch clamp recordings at the soma of CA1 pyramidal cells to measure the whole-cell A-type K^+ current (Chen, 2005; Good et al., 1996; Hall et al., 2015; Scala et al., 2015). To make comparisons to earlier studies, the same approach was employed. Briefly, whole-cell A-type K^+ current (IA) was elicited by depolarizing pulses to +40 mV from a holding potential of −100 mV in the presence of 20 mM tetraethylammonium (TEA) and 100 nM tetrodotoxin (TTX). In steady-state activation experiments, membrane potential was held at −100 mV, and IA was evoked by a 200-ms depolarizing pulse from a first pulse potential of −80 mV to +80 my in 10-mV steps at 10-s intervals, Data were analyzed using the equation GK=IK/(Vm−Vrev), where GK is the membrane K^+ conductance, Vm is the membrane potential, and Vrev is the reversal potential for K^+. To study steady-state inactivation of IA, currents were elicited using 1-s conditioning pre-pulses from −110 mV to 0 mV before a 200-ms test pulse of +50 mV. After normalizing each current amplitude to the maximal current, amplitude obtained from the −110 mV pre-pulse was used as a function of the conditioning pre-pulse potential and fitted with the function IA/IA−max=1/(1+exp((Vm1/2−Vm)/k)), from which, an inactivation curve of IA was obtained, and the VH value (the voltage at which the current amplitude was half-inactivated) was calculated. The somatic whole-cell recordings provide information on the magnitude of somatic A-type K^+ current, an important determinant of somatic excitability.
# For HEK293 cell experiments, HEK293 cell lines were maintained as previously described (Jiang et al., 2004) and transiently transfected with cDNAs of Kv4.2 and KChIP4 together with cDNA encoding for GFP to identify cells successfully transfected. 12-16 h before recording, tetracycline was added to culture media to induce the expression of RyR2 WI or RyR2 E4872Q mutant. IA was recorded with the same protocols as described above. Prior to IA recording, the culture medium was replaced with a bath solution (NaCl, 125 mM; KCl, 2.5 mM; HEPES, 10 mM; MgCl2, 1 mM; glucose, 10 mM; TEA, 20 mM; pH 7.4 adjusted with NaOH).
# [7] = system: 5×FAD+/− CA1 pyramidal neurons; assay: Whole-cell patch-clamp recording of action potential firing in 5×FAD+/− CA1 pyramidal neurons in brain slices; type: cell-based, mouse; conditions: 10 μM, 3-4 months old 5×FAD+/− CA1 pyramidal neurons
# Description: Acute brain slices were prepared according to the published procedures with some modifications (Ting et al., 2014; Ting et al., 2018).
# For whole-cell patch-clamp recordings, slices were transferred to a submerged recording chamber perfused with carbogenated external solutions at a flow rate of 4-6 mL/min at room temperature. Action potentials (APs) were measured in hippocampal CA1 pyramidal neurons in transverse hippocampal slices (260 μm) from all genotypes of 3-4 months old mice using whole-cell patch-clamp with an […] amplifier (Axon Instruments). […] Membrane potentials in 5-6 months old or older neurons were not measured as aged neurons are difficult to patch. AP firing was recorded in an external solution (NaCl, 124 mM; KCl, 2.5 mM; NaH2PO4, 1.25 mM; NaHCO3, 24 mM; HEPES, 5 mM; glucose, 12.5 mM; MgCl2, 2 mM; and CaCl2, 2 mM; pH 7.4 adjusted with NaOH) and soft-glass recording pipettes (Sutter Instruments; Novato CA) filled with an internal solution (potassium gluconate, 135 mM, KCl, 10 mM, HEPES, 10 mM, CaCl2, 1 mM, MgCl2, 1 mM, EGTA, 10 mM, ATP, 1 mM, GTP, 0.1 mM, and pH 7.3 adjusted with KOH). […] For spontaneous AP recording, cells were hold at −70 mV and recorded for 3 min. […] For testing the Kv4 channel agonist NS5806, APs were measured before and 15 min after perfusion of 10 μM NS5806 in the external solution. […]
smiles,measurement,setting,value
"COc1ccccc1OCCNCC(O)COc1cccc2[nH]c3ccccc3c12 (racemic) [Racemic carvedilol, carvedilol]",LTP impairment,[1],did not prevent
same,improvement in AD,[2],no significant improvement
same,store-overload-induced Ca2+ release,[3],reduces
same,"memory loss / learning and memory deficits (MWM, NOR)",[4],did not prevent
same,content of oligomeric Aβ in the brain,[5],significantly reduced
Cn1c(=O)c2c(ncn2C)n(C)c1=O [Caffeine],Kv4.2-mediated current,[6],decreased
same,decay time (inactivation time constant Tau) of Kv4.2-mediated current,[6],decreased
same,voltage-dependent activation of Kv4.2-mediated current,[6],without altering
same,voltage-dependent inactivation of Kv4.2-mediated current,[6],without altering
O=C(Nc1cc(C(F)(F)F)cc(C(F)(F)F)c1)Nc1c(Br)cc(Br)cc1-c1nn[nH]n1 [NS5806],threshold current for inducing AP firing,[7]; before vs 15 min after perfusion,dramatically increased
same,frequency of AP firing,[7]; current injection-triggered,decreased
